biological target: T1, stearoyl-CoA desaturase (SCD) (Rattus norvegicus, UniProt P07308); test: SCD assay with rat liver microsomes ([3H]stearoyl CoA, adapted from Talamo and Bloch); type: biochemical; conditions: Table 1; rat liver microsomes 0.2 mg/ml assay final, [3H]stearoyl CoA substrate, 30 min preincubation, 45 min reaction, room temperature
T1 construct: The microsomes were quickly thawed and added to assay buffer so that a concentration of 0.4 mg/ml was achieved; from tissue
T1 sequence (P07308 1-358): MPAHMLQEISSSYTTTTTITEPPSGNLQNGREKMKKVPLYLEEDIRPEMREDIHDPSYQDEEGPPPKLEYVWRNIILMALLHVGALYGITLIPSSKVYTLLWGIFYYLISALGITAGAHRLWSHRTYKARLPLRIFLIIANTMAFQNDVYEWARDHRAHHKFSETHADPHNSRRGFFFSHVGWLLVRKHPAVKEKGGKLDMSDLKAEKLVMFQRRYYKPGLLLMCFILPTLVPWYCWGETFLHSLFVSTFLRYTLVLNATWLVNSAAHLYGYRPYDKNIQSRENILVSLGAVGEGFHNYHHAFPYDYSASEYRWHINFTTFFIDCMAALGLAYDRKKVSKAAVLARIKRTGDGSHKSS
Procedure, shortened: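 Liver microsomes came from diet-induced male Sprague Dawley rats and were used at 0.2 mg/ml final. Assay buffer was Tris pH 7.2 with NADH, ATP, CoA, MgCl2 and 0.1% BSA. Compounds were preincubated 30 min, then reacted 45 min at room temperature with [3H]stearoyl-CoA; after TCA stop and Bio-Bead cleanup, supernatant radioactivity was counted by scintillation.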

SMILES | IC50 [nM]
O=C(Nc1ccc2ncn(Cc3ccc(F)cc3)c(=O)c2c1)OCc1ccccc1 [XXIV, N-{3-[(4-fluorophenyl)methyl]-4-oxo(3-hydroquinazolin-6-yl)}(phenylmethoxy)carboxamide] | 300
O=C(Nc1ccc2c(=O)n(Cc3ccc(Cl)cc3)cnc2c1)OCc1ccccc1 [XLVIII, N-{3-[(4-chlorophenyl)methyl]-4-oxo(3-hydroquinazolin-7-yl)}(phenylmethoxy)carboxamide] | 90
Cc1ccc(OCC(=O)Nc2ccc3ncn(Cc4ccc(Cl)c(Cl)c4)c(=O)c3c2)cc1 [XXII, N-{3-[(3,4-dichlorophenyl)methyl]-4-oxo(3-hydroquinazolin-6-yl)}-2-(4-methylphenoxy)acetamide] | 5700
Cc1ccc(OC(=O)Nc2ccc3ncn(Cc4ccc(Cl)c(Cl)c4)c(=O)c3c2)cc1 [XI, N-{3-[(3,4-dichlorophenyl)methyl]-4-oxo(3-hydroquinazolin-6-yl)}(4-methylphenoxy)carboxamide] | 2700
O=C(COc1ccccc1[N+](=O)[O-])Nc1ccc2ncn(Cc3ccc(Cl)c(Cl)c3)c(=O)c2c1 [XXXI, N-{3-[(3,4-dichlorophenyl)methyl]-4-oxo(3-hydroquinazolin-6-yl)}-2-(2-nitrophenoxy)acetamide] | 15000
COC(=O)Nc1ccc2ncn(Cc3ccc(Cl)c(Cl)c3)c(=O)c2c1 [XIII, N-{3-[(3,4-dichlorophenyl)methyl]-4-oxo(3-hydroquinazolin-6-yl)}methoxycarboxamide] | 4700
O=C(CSc1ccc(Cl)cc1)Nc1ccc2ncn(Cc3ccc(Cl)c(Cl)c3)c(=O)c2c1 [LVI, N-{3-[(3,4-dichlorophenyl)methyl]-4-oxo(3-hydroquinazolin-6-yl)}-2-(4-chlorophenylthio)acetamide] | 2810

same assay, conditions: Table 2 (Example 21, procedures of Example 20); rat liver microsomes, [3H]stearoyl CoA substrate

SMILES | IC50 [nM]
O=C(CO)Nc1ccc2c(=O)n(CCCOc3cc(Cl)ccc3Cl)cnc2c1 [compound 51, N-(3-(3-(2,5-dichlorophenoxy)propyl)-4-oxo-3,4-dihydroquinazolin-7-yl)-2-hydroxyacetamide] | 86
O=C(CO)Nc1cnc2ncn(Cc3ccc(Cl)cc3)c(=O)c2c1 [compound 79, N-(3-(4-chlorobenzyl)-4-oxo-3,4-dihydropyrido[2,3-d]pyrimidin-6-yl)-2-hydroxyacetamide] | 1700
O=C(Nc1ccc2ncn(CCCOc3ccccc3C(F)(F)F)c(=O)c2c1)OCc1ccccc1 [compound 41, benzyl 4-oxo-3-(3-(2-(trifluoromethyl)phenoxy)propyl)-3,4-dihydroquinazolin-6-ylcarbamate] | 69
CCC(c1ccc(Cl)c(Cl)c1)n1cnc2ccc(NC(=O)OCc3ccccc3)cc2c1=O (stereo not shown) [compound 30, benzyl 3-(1-(3,4-dichlorophenyl)propyl)-4-oxo-3,4-dihydroquinazolin-6-ylcarbamate] | 1400
O=C(CO)Nc1ccc2ncn(CCNC(=O)c3ccccc3C(F)(F)F)c(=O)c2c1 [compound 69, N-(2-(6-(2-hydroxyacetamido)-4-oxoquinazolin-3(4H)-yl)ethyl)-2-(trifluoromethyl)benzamide] | 5200
Cc1ccccc1OCCCn1cnc2ccc(NC(=O)OCc3ccccc3)cc2c1=O [compound 52, benzyl 4-oxo-3-(3-(o-tolyloxy)propyl)-3,4-dihydroquinazolin-6-ylcarbamate] | 44
O=C(NCCO)c1ccc2c(=O)n(Cc3ccc(Cl)c(Cl)c3)cnc2c1 [compound 84, 3-(3,4-dichlorobenzyl)-N-(2-hydroxyethyl)-4-oxo-3,4-dihydroquinazoline-7-carboxamide] | 630
O=C(NCc1ccc(Cl)c(Cl)c1)c1ccc2c(=O)n(Cc3ccc(Cl)c(Cl)c3)cnc2c1 [compound 91, N,3-bis(3,4-dichlorobenzyl)-4-oxo-3,4-dihydroquinazoline-7-carboxamide] | 1700
O=C(CCO)Nc1ccc2ncn(Cc3ccc(Cl)c(Cl)c3)c(=O)c2c1 [compound 95, N-(3-(3,4-dichlorobenzyl)-4-oxo-3,4-dihydroquinazolin-6-yl)-3-hydroxypropanamide] | 12000

— US20090105283A1, “3-HYDROQUINAZOLIN-4-ONE DERIVATIVES FOR USE AS STEAROYL CoA DESATURASE INHIBITORS” (priority 2007, published 2009)
